The target of experiment [1] is T1, TBK1 (Homo sapiens, UniProt Q9UHD2).
T1 sequence (Q9UHD2 1-729): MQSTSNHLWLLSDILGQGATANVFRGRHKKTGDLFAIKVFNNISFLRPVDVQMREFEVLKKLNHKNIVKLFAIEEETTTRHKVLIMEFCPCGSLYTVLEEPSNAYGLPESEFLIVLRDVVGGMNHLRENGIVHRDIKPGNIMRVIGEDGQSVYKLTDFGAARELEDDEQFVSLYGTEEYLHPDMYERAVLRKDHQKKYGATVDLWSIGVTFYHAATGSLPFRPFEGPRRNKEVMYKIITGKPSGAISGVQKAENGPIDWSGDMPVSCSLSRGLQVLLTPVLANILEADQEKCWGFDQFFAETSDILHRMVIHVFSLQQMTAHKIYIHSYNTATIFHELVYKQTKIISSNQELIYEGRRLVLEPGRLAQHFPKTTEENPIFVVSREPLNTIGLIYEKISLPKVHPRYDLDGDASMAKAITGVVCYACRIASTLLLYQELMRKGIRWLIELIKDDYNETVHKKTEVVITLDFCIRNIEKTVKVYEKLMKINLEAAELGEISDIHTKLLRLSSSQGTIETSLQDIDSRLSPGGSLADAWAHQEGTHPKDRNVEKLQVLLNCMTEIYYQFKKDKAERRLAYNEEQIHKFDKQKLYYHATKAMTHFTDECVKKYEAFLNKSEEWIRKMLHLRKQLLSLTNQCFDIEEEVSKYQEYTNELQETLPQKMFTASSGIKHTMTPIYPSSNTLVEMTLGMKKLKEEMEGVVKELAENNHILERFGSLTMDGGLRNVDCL
Put plainly: TBK Biochemical Assay. The conditions noted are these: read-out: TBK1 IC50. On the procedure: Example 482: TBK Biochemical Assay
Test compounds were transferred into Labcyte polypropylene 384 well plates (P055-25) and diluted to 3 mM using DMSO. 3 mM test compounds were dispensed using Labcyte ECHO dose response module into Greiner 784075 plates (columns 3-12 and 13-22, 10 point 1:4) so that high concentration was 30 uM final. 100 uM of a reference compound (1 uM final high concentration). Backfilling was performed if necessary so that all wells contain 1% DMSO final: […]
add 75 nl DMSO/well into columns 1, 2 and 24 using Labcyte Echo. add 75 nl 1.0 mM staurosporine/well into column 23 using Labcyte Echo ([…]) add 4.5 ul enzyme/well using multidrop dispenser add 3 ul substrate/well using multidrop dispenser incubate at 25° C. in Heidolph incubator for 90 min. add 7.5 ul 2× stop buffer using multidrop dispenser read on labchip ez reader II using TBK1.job
(§1) Raw data files were opened in the Caliper LabChip Reviewer program (Version 3.0.265.0 SP2) and peak assignments were adjusted to reflect “substrate first” with the software's post-run analysis options. A spline-fit baseline was applied using the software's analysis algorithm.

Experiment [2] concerns the target T2, IKKε (Homo sapiens, UniProt Q14164).
T2 sequence (Q14164 1-716): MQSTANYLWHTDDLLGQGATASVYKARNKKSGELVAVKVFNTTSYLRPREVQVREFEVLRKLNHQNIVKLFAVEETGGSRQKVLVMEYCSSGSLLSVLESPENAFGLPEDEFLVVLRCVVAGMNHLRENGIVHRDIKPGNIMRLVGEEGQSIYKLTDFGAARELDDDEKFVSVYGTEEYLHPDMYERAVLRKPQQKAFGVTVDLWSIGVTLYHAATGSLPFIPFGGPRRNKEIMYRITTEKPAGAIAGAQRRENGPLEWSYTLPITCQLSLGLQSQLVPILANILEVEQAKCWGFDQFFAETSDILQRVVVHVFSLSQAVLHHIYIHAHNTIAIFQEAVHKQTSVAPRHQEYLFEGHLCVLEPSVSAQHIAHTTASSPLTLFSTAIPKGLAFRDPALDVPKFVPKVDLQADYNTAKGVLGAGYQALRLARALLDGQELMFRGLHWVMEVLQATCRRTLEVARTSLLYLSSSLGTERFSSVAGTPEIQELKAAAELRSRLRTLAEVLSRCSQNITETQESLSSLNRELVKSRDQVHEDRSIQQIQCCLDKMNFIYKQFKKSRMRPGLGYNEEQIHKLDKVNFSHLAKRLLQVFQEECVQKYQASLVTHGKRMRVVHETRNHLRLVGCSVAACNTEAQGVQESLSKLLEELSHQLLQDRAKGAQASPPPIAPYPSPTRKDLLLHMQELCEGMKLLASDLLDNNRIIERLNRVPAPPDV
Put plainly: IKKe Biochemical Assay. The conditions noted are these: read-out: IKKε IC50. On the procedure:
Test compounds were transferred into Labcyte polypropylene 384 well plates (P055-25) and diluted to 3 mM using DMSO. 3 mM test compounds were dispensed using Labcyte ECHO dose response module into (Greiner 784075 plates (columns 3-12 and 13-22, 10 point 1:4) so that high concentration was 30 uM final. 100 uM of a reference compound (1 uM final high concentration). Backfilling was performed if necessary so that all wells contain 1% DMSO final: […]
add 75 nl DMSO/well into columns 1, 2 and 24 using Labcyte Echo. add 75 nl 1.0 mM staurosporine/well into column 23 using Labcyte Echo (10 uM final) add 4.5 ul enzyme/well using multidrop dispenser add 3 ul substrate/well using multidrop dispenser incubate at 25° C. for 90 min. add 7.5 ul 2× stop buffer read on labchip ez reader II using IKKε. job
as §1

For orientation: IC50 means the midpoint of a concentration-inhibition curve.

Molecules are shown by their SMILES. Counter-ions that a name gives are not always drawn.

Consider `C[C@@H]1COC[C@H](C)[C@H]1Oc1ccc(-c2ccnc3cc(-c4ccc(C(=O)N(C)C)cc4)oc23)cc1C#N` (single isomer, unassigned) [Compound 219, 4-(7-(3-cyano-4-(3,5-dimethyl-tetrahydro-2H-pyran-4-yloxy)phenyl)furo[3,2-b]pyridin-2-yl)-N,N-dimethylbenzamide hydrochloride], for which the IC50 in experiment [1] and in experiment [2] was 100 to 1000 nM each time. Take `C[C@@H]1COC[C@@H](C)C1Oc1ccc(-c2ccnc3cc(-c4ccc(C(=O)N(C)C)cc4)oc23)cc1C#N` (single isomer, unassigned) [Compound 220, 4-(7-(3-cyano-4-(3,5-dimethyl-tetrahydro-2H-pyran-4-yloxy)phenyl)furo[3,2-b]pyridin-2-yl)-N,N-dimethylbenzamide hydrochloride]: the IC50 in experiment [1] and in experiment [2] was 100 to 1000 nM throughout. Regarding `C[C@@H]1COC[C@H](C)[C@@H]1Oc1ccc(-c2ccnc3cc(-c4ccc(C(=O)N(C)C)cc4)oc23)cc1C#N` (single isomer, unassigned) [Compound 221, 4-(7-(3-cyano-4-(3,5-dimethyl-tetrahydro-2H-pyran-4-yloxy)phenyl)furo[3,2-b]pyridin-2-yl)-N,N-dimethylbenzamide hydrochloride], the IC50 in experiment [1] and in experiment [2] was 100 to 1000 nM throughout. As for `COc1cc(C(=O)N(C)C)ccc1-c1cc2nccc(-c3ccc(OC4[C@H](C)COC[C@H]4C)c(C#N)c3)c2o1` (single isomer, unassigned) [Compound 231, 4-(7-(3-cyano-4-(3,5-dimethyl-tetrahydro-2H-pyran-4-yloxy)phenyl)furo[3,2-b]pyridin-2-yl)-3-methoxy-N,N-dimethylbenzamide], the IC50 in experiment [1] and in experiment [2] was less than 100 nM each time. On to `COc1cc(C(=O)N[C@@H]2CCNC[C@@H]2F)ccc1-c1cc2nccc(-c3ccc(NC4CCOCC4)c(C#N)c3)c2o1` (single isomer, unassigned) [Compound 251, 4-(7-(3-cyano-4-(tetrahydro-2H-pyran-4-ylamino)phenyl)furo[3,2-b]pyridin-2-yl)-N-(3-fluoropiperidin-4-yl)-3-methoxybenzamide hydrochloride], for which the IC50 in experiment [1] and in experiment [2] was less than 100 nM throughout.

Consider `COc1cc(C(=O)N[C@@H]2CCNC[C@@H]2F)ccc1-c1cc2nccc(-c3cc(F)c(NC4CCOCC4)c(C#N)c3)c2o1` (single isomer, unassigned) [Compound 253, 4-(7-(3-cyano-5-fluoro-4-(tetrahydro-2H-pyran-4-ylamino)phenyl)furo[3,2-b]pyridin-2-yl)-N-(3-fluoropiperidin-4-yl)-3-methoxybenzamide hydrochloride], for which the IC50 in experiment [1] and in experiment [2] was less than 100 nM each time. With `COc1cc(C(=O)N[C@@H]2CCNC[C@@H]2F)ccc1-c1cc2nccc(-c3cc(F)c(NC4CCOCC4)c(C#N)c3)c2o1` (single isomer, unassigned) [Compound 254, 4-(7-(3-cyano-5-fluoro-4-(tetrahydro-2H-pyran-4-ylamino)phenyl)furo[3,2-b]pyridin-2-yl)-N-(3-fluoropiperidin-4-yl)-3-methoxybenzamide hydrochloride], the values for the IC50 in experiment [1] and in experiment [2] were 100 to 1000 nM and less than 100 nM, respectively. Taken in the same sequence, the figures for `CN(C)C(=O)c1ccc(-c2cc3nccc(-c4ccc(N5CC[C@H](F)C5)c(C#N)c4)c3o2)nc1` (single isomer, unassigned) [Compound 272, 6-(7-(3-cyano-4-(3-fluoropyrrolidin-1-yl)phenyl)furo[3,2-b]pyridin-2-yl)-N,N-dimethylnicotinamide hydrochloride] were less than 100 nM and less than 100 nM. For `CN(C)C(=O)c1ccc(-c2cc3nccc(-c4ccc(N5CC[C@H](F)C5)c(C#N)c4)c3o2)nc1` (single isomer, unassigned) [Compound 273, 6-(7-(3-cyano-4-(3-fluoropyrrolidin-1-yl)phenyl)furo[3,2-b]pyridin-2-yl)-N,N-dimethylnicotinamide hydrochloride] the same measures were less than 100 nM and less than 100 nM. For `N#Cc1cc(-c2ccnc3cc(-c4ccc(C(=O)N[C@@H]5CCNC[C@@H]5F)cc4F)oc23)ccc1NC1CCOCC1` (stereo in doubt) [Compound 252, 4-(7-(3-cyano-4-(tetrahydro-2H-pyran-4-ylamino)phenyl)furo[3,2-b]pyridin-2-yl)-3-fluoro-N-(3-fluoropiperidin-4-yl)benzamide hydrochloride] the same measures were 100 to 1000 nM and 100 to 1000 nM. For `COc1cc(C(=O)N2C3CCC2COC3)ccc1-c1cc2nccc(-c3ccc(OC4CCOCC4)c(C#N)c3)c2o1` [Compound 2, 5-{2-[2-Methoxy-4-(3-oxa-8-aza-bicyclo[3.2.1]octane-8-carbonyl)-phenyl]-furo[3,2-b]pyridin-7-yl}-2-(tetrahydro-pyran-4-yloxy)-benzonitrile], the IC50 in experiment [1] and in experiment [2] was less than 100 nM each time. As for `CN(C)C(=O)c1ccc(-c2cc3nccc(-c4ccc(Oc5ccncc5)c(C#N)c4)c3o2)cc1` [Compound 200, 4-{7-[3-Cyano-4-(pyridin-4-yloxy)-phenyl]-furo[3,2-b]pyridin-2-yl}-N,N-dimethyl-benzamide], the IC50 in experiment [2] is greater than 5000 nM. Consider `COC(=O)c1ccc(-c2cc3nccc(-c4ccc(OC5CC6(COC6)C5)c(C#N)c4)c3o2)cc1` [Compound 204], for which, in experiment [2], the IC50 was in the range of 100 to 1000 nM. The same measure, in the same setting: the figure for `COC(=O)c1ccc(-c2cc3nccc(-c4ccc(Oc5ccccc5F)c(C#N)c4)c3o2)cc1` [Compound 205] is greater than 5000 nM; for `COc1cc(C(=O)N(C)C)ccc1-c1cc2nccc(-c3ccc(OC4CCOCC4OCc4ccccc4)c(C#N)c3)c2o1` (stereo not shown) [Compound 211] it is 100 to 1000 nM. With `CC1CC(Oc2ccc(-c3ccnc4cc(-c5ccc(C(=O)N(C)C)cc5)oc34)cc2C#N)CC(C)O1` (stereo not shown) [Compound 213, 4-{7-[3-Cyano-4-(2,6-dimethyl-tetrahydro-pyran-4-yloxy)-phenyl]-furo[3,2-b]pyridin-2-yl}-N,N-dimethyl-benzamide], the IC50 in experiment [2] is greater than 5000 nM. The same measure, in the same setting: the figure for `CN(C)C(=O)c1cnc(-c2cc3nccc(-c4cc(F)c(NC5CCOCC5)c(C#N)c4)c3o2)c(F)c1` [Compound 248, 6-(7-(3-cyano-5-fluoro-4-(tetrahydro-2H-pyran-4-ylamino)phenyl)furo[3,2-b]pyridin-2-yl)-5-fluoro-N,N-dimethylnicotinamide] is 100 to 1000 nM.

The values are drawn from US10428080B2, “TBK/IKK inhibitor compounds and uses thereof” (Merck Patent GmbH, priority 2015, dated 2019).
